Reference: publication PMC9545474, “Anticancer Water‐Soluble Organoruthenium Complexes: Synthesis and Preclinical Evaluation” (Chembiochem, 2022)

Tests used:
[1] = Reactivity with NAC by NMR; assay type: physicochemical; conditions: NMR studies over 24 hours
A2780 cells = test: FITC annexin-V / PI apoptosis assay by flow cytometry; assay type: cell-based, human; conditions: A2780, 24 h, complexes 2×IC50, doxorubicin 0.5 µM
Excerpt: Annexin V‐FITC and propidium iodide (PI) have been used to distinguish between viable cells (Q1‐LL), early apoptotic cells (Q1‐LR), late apoptotic cells (Q1‐UR), and necrotic cells (Q1‐UL). […] Both complexes 6 and 8 induce apoptosis of A2780 cells and treatment with the complexes results in 99.6 % and 95.4 % of the cells in late apoptosis, respectively.
Figure 9 Flow cytometry analysis of A2780 cells exposed to complexes 6 or 8 at twice the IC50 concentration compared to a negative control. FITC reads annexin fluorescence and PE reads propidium iodide. Abbreviations: Q1‐UL=non‐viable cells; Q1‐UR=late‐stage apoptotic cells; Q1‐LR=early‐stage apoptotic cells and Q1‐LL=healthy cells.
FITC annexin‐V apoptosis assay: Flow cytometry analysis of apoptotic populations was carried out using the FITC Annexin V Apoptosis Detection Kit with PI (BioLegend®) according to manufacturer's instructions. Briefly, A2780 cells were seeded in 6‐well plates at a concentration of 1.0×10^6 cells per well and the plates were incubated for 24 h at 37 °C and a 5 % CO2 humidified atmosphere. […] Cells were then harvested using trypsin (without EDTA) and stained with PI/Annexin V‐FITC. After staining in the dark for 15 min at room temperature, cell pellets were analysed in a BD Accuri C6 Plus System flow cytometer and data was analysed using the BD Accuri C6 Plus software. These experiments were carried out in duplicate of triplicates in independent experiments; although only selected dot plots are shown, full numerical data and statistical analysis can be found in the Supporting Information.

[2] = mice
Method: Compounds: All compounds were provided in powdered form and stored in the −20 °C freezer. They were formulated just before use. […] The drugs were then administered within 10 minutes of initial dilution.
Animals: Female Balb/c immunodeficient nude mice aged 6–12 weeks were used (Envigo, Blackthorn, UK). Mice were kept in cages housed in isolation cabinets in an air‐conditioned room with regular alternating cycles of light and darkness. They received Teklad 2018 diet (Envigo, Blackthorn, UK) and water ad libitum. All animal procedures were carried out under a project licence issued by the UK Home Office and UK National Cancer Research Institute Guidelines for the Welfare of Animals were followed throughout.
(1 picture or pasted object on this page, not shown here)

[3] = Combined results, Average of two experiments

(η^6‐p‐cymene)(TPPTS)Ru(Mnt) [Complex 6]
Reaction with NAC [1]: do not react together | Early apoptosis (Q1-LR) (A2780 cells; [3]): 0.1% | Late apoptosis (Q1-UR) (A2780 cells; [3]): 99.8% | Necrosis (Q1-UL) (A2780 cells; [3]): 0.0% | Viable cells (Q1-LL) (A2780 cells; [3]): 0.2% | Early apoptosis (Q1-LR) (A2780 cells; Experiment 1, Average): 0.1% | Late apoptosis (Q1-UR) (A2780 cells; Experiment 1, Average): 99.6% | Necrosis (Q1-UL) (A2780 cells; Experiment 1, Average): 0.0% | Viable cells (Q1-LL) (A2780 cells; Experiment 1, Average): 0.2% | Early apoptosis (Q1-LR) (A2780 cells; Experiment 1, Rep 1): 0.1% | Late apoptosis (Q1-UR) (A2780 cells; Experiment 1, Rep 1): 99.6% | Necrosis (Q1-UL) (A2780 cells; Experiment 1, Rep 1): 0.0% | Viable cells (Q1-LL) (A2780 cells; Experiment 1, Rep 1): 0.2% | Early apoptosis (Q1-LR) (A2780 cells; Experiment 1, Rep 2): 0.1% | Late apoptosis (Q1-UR) (A2780 cells; Experiment 1, Rep 2): 99.6% | Necrosis (Q1-UL) (A2780 cells; Experiment 1, Rep 2): 0.0% | Viable cells (Q1-LL) (A2780 cells; Experiment 1, Rep 2): 0.2% | Early apoptosis (Q1-LR) (A2780 cells; Experiment 1, Rep 3): 0.2% | Late apoptosis (Q1-UR) (A2780 cells; Experiment 1, Rep 3): 99.5% | Necrosis (Q1-UL) (A2780 cells; Experiment 1, Rep 3): 0.0% | Viable cells (Q1-LL) (A2780 cells; Experiment 1, Rep 3): 0.3% | Early apoptosis (Q1-LR) (A2780 cells; Experiment 2, Average): 0.0% | Late apoptosis (Q1-UR) (A2780 cells; Experiment 2, Average): 99.9% | Necrosis (Q1-UL) (A2780 cells; Experiment 2, Average): 0.0% | Viable cells (Q1-LL) (A2780 cells; Experiment 2, Average): 0.1% | Early apoptosis (Q1-LR) (A2780 cells; Experiment 2, Rep 1): 0.0% | Late apoptosis (Q1-UR) (A2780 cells; Experiment 2, Rep 1): 99.9% | Necrosis (Q1-UL) (A2780 cells; Experiment 2, Rep 1): 0.0% | Viable cells (Q1-LL) (A2780 cells; Experiment 2, Rep 1): 0.1% | Early apoptosis (Q1-LR) (A2780 cells; Experiment 2, Rep 2): 0.0% | Late apoptosis (Q1-UR) (A2780 cells; Experiment 2, Rep 2): 99.9% | Necrosis (Q1-UL) (A2780 cells; Experiment 2, Rep 2): 0.0% | Viable cells (Q1-LL) (A2780 cells; Experiment 2, Rep 2): 0.0% | Early apoptosis (Q1-LR) (A2780 cells; Experiment 2, Rep 3): 0.0% | Late apoptosis (Q1-UR) (A2780 cells; Experiment 2, Rep 3): 99.9% | Necrosis (Q1-UL) (A2780 cells; Experiment 2, Rep 3): 0.0% | Viable cells (Q1-LL) (A2780 cells; Experiment 2, Rep 3): 0.1%

Cc1ccc(C(C)C)cc1.N#CC1=C(C#N)[S][Ru-]([P+](c2ccccc2)(c2ccccc2)c2ccccc2)[S]1 [Complex 8, (η^6‐p‐cymene)(PPh3)Ru(Mnt)]
Early apoptosis (Q1-LR) (A2780 cells; [3]): 2.5% | Late apoptosis (Q1-UR) (A2780 cells; [3]): 94.4% | Necrosis (Q1-UL) (A2780 cells; [3]): 0.5% | Viable cells (Q1-LL) (A2780 cells; [3]): 2.6% | Early apoptosis (Q1-LR) (A2780 cells; Experiment 1, Average): 2.6% | Late apoptosis (Q1-UR) (A2780 cells; Experiment 1, Average): 94.3% | Necrosis (Q1-UL) (A2780 cells; Experiment 1, Average): 0.4% | Viable cells (Q1-LL) (A2780 cells; Experiment 1, Average): 2.7% | Early apoptosis (Q1-LR) (A2780 cells; Experiment 1, Rep 1): 2.6% | Late apoptosis (Q1-UR) (A2780 cells; Experiment 1, Rep 1): 95.4% | Necrosis (Q1-UL) (A2780 cells; Experiment 1, Rep 1): 0.3% | Viable cells (Q1-LL) (A2780 cells; Experiment 1, Rep 1): 1.7% | Early apoptosis (Q1-LR) (A2780 cells; Experiment 1, Rep 2): 2.2% | Late apoptosis (Q1-UR) (A2780 cells; Experiment 1, Rep 2): 94.5% | Necrosis (Q1-UL) (A2780 cells; Experiment 1, Rep 2): 0.4% | Viable cells (Q1-LL) (A2780 cells; Experiment 1, Rep 2): 2.8% | Early apoptosis (Q1-LR) (A2780 cells; Experiment 1, Rep 3): 3.0% | Late apoptosis (Q1-UR) (A2780 cells; Experiment 1, Rep 3): 93.0% | Necrosis (Q1-UL) (A2780 cells; Experiment 1, Rep 3): 0.6% | Viable cells (Q1-LL) (A2780 cells; Experiment 1, Rep 3): 3.5% | Early apoptosis (Q1-LR) (A2780 cells; Experiment 2, Average): 2.4% | Late apoptosis (Q1-UR) (A2780 cells; Experiment 2, Average): 94.5% | Necrosis (Q1-UL) (A2780 cells; Experiment 2, Average): 0.6% | Viable cells (Q1-LL) (A2780 cells; Experiment 2, Average): 2.5% | Early apoptosis (Q1-LR) (A2780 cells; Experiment 2, Rep 1): 2.0% | Late apoptosis (Q1-UR) (A2780 cells; Experiment 2, Rep 1): 95.1% | Necrosis (Q1-UL) (A2780 cells; Experiment 2, Rep 1): 0.6% | Viable cells (Q1-LL) (A2780 cells; Experiment 2, Rep 1): 2.3% | Early apoptosis (Q1-LR) (A2780 cells; Experiment 2, Rep 2): 2.3% | Late apoptosis (Q1-UR) (A2780 cells; Experiment 2, Rep 2): 94.2% | Necrosis (Q1-UL) (A2780 cells; Experiment 2, Rep 2): 0.8% | Viable cells (Q1-LL) (A2780 cells; Experiment 2, Rep 2): 2.7% | Early apoptosis (Q1-LR) (A2780 cells; Experiment 2, Rep 3): 2.9% | Late apoptosis (Q1-UR) (A2780 cells; Experiment 2, Rep 3): 94.1% | Necrosis (Q1-UL) (A2780 cells; Experiment 2, Rep 3): 0.5% | Viable cells (Q1-LL) (A2780 cells; Experiment 2, Rep 3): 2.5% | maximum tolerated dose (MTD) ([2]; i.p. daily, monitored for a further two weeks): 15 mg/kg | Toxicity in MTD run ([2]; i.p., 15mg/kg in 20 % DMSO/arachis oil, full run): no evidence of toxicity was seen
